From patent US10696996B2, “Biosynthesis of everninomicin analogs in Micromonospora carbonacea var aurantiaca” (VANDERBILT UNIVERSITY, priority 2015, dated 2020) come the findings set out here.

A word on the MIC: it is the lowest concentration found to suppress growth. Broadly, the Kd is the equilibrium constant for the complex coming apart. Low readings indicate higher affinity, high ones lower affinity.

The test system of experiment [1] is E. coli. In words: nalidixic acid concentration test for conjugation, growth of donor E. coli. The class given is cell-based, Escherichia coli. Here is the method:
M. carbonacea was grown on TSB agar (Oxoid™ Tryptone Soy Broth, 2% agarose) for 7 days at 30° C. Conjugal acceptor mycelia were prepared by inoculating a loop of mycelia into 10 mL of TSB medium in a 50 mL Falcon tube and incubating with shaking at 30° C. for 5 days. The culture was then centrifuged at 3000×g for 10 minutes and the pellet resuspended in 2 mL fresh TSB. 150 μL aliquots were transferred into sterile 1.5 mL Eppendorf tubes and homogenized using a sterile plastic cell homogenizer. Donor E. coli ET12567/pUZ8002 cells containing the gene replacement were prepared by inoculating 1% of a freshly prepared overnight LB culture into 10 mL LB medium in a 50 mL Falcon tube containing apramycin and kanamycin and grown to an OD600 of 0.4 at 37° C. with shaking. The culture was centrifuged at 3000×g for 10 minutes, and the pellet was washed three times with 10 mL fresh LB. After the final wash, the pellet was resuspended in 150 μL LB. 50 μL of donor E. coli was added to 150 μL of recipient M. carbonacea. The bacterial mixture was plated on AS1 agar (0.1% yeast extract, 0.5% soluble starch, 0.02% L-alanine, 0.02% L-arginine, 0.05% L-asparagine, 0.25% NaCl, 1% Na2SO4, 2% agarose at pH 7.5, supplemented with 10 mM MgCl2). The plates were then incubated at 37° C. for 1-2 hours until thoroughly dried. […]

In experiment [2] the test system is M. carbonacea. Briefly: nalidixic acid concentration test for conjugation, survival of M. carbonacea. It is filed as cell-based, Micromonospora carbonacea var aurantiaca.
For experiment [3], the system named is Staphyloccocus aureus subsp. aureus Rosenbach (ATCC 6538P). In words: broth microdilution assay (NCCLS), antibacterial activity. The class given is cell-based, Staphylococcus aureus. To be noted: for MIC: S. aureus subsp. aureus Rosenbach, broth microdilution. Here is the method:
The antibacterial activity of purified everninomicins and conjugates was determined by the broth microdilution assay according to NCCLS guidelines using Staphyloccocus aureus subsp. aureus Rosenbach (ATCC 6538P) as the test organism.
(Broth dilution looks for growth in wells or tubes with falling amounts of substance.)

Experiment [4] addresses T1, HygX (Streptomyces hygroscopicus, UniProt Q2MFS1).
T1 sequence (Q2MFS1 1-258): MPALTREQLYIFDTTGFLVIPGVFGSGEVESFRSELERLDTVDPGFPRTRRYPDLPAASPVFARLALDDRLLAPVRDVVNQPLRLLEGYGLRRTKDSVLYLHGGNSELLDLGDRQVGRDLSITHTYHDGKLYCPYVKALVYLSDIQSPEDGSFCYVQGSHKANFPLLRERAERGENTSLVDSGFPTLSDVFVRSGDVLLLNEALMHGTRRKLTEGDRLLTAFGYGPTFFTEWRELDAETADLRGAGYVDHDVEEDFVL
Briefly: tryptophan fluorescence quenching assay, hygromycin B binding to HygX. The arrangement: species or system S. hygroscopicus. The note with it: 20° C. Here is the method: The Kd of hygromycin B binding to HygX was determined by monitoring the quenching of intrinsic fluorescence from the single tryptophan residue of HygX upon hygromycin B binding. Using a Cary Eclipse Varian fluorescence spectrometer, sample fluorescence was measured at 20° C. with both emission and excitation slits set at 10 nm and detector voltage set to 800 V. The […] wavelength was set to 280 nm, and spectra collected were from 300 to 400 nm, with 350 nm used for calculating binding affinity. Each sample contained 990 μL of 0.5 μM HygX in 25 mM Tris (pH 7.4), 75 mM NaCl, 0.05 mM AKG, and 0.05 mM NiCl2, which was then mixed with 10 μL of hygromycin B (diluted in the above buffer) of varying concentrations. Spectra were measured in triplicate, and the experiment repeated three times. Because hygromycin B at higher concentrations has background fluorescence between 300 and 400 nm, the experiment was repeated using only buffer and subtracted from the measurement taken with HygX present. Change in fluorescence resulting from changing hygromycin B concentration was plotted against hygromycin B concentration and fit to a single binding-site model using Kaleidagraph Version 4.0.

Where [5] appears, read: Staphylococcus aureus, ATCC6538P, read-out: MIC.

Values after ≈ are worked out from the molar mass of the structure shown. Read-outs that look alike come from different tables or passages of the source.

`CCn1cc(C(=O)O)c(=O)c2ccc(C)nc21` [nalidixic acid]: the “growth of E. coli” value is listed as “stunted” in experiment [1] (nalidixic acid 12.5 μg/mL) and “stunted the growth” in experiment [1] (nalidixic acid 25 μg/mL). Moreover, the figures for the “growth of M. carbonacea” value in experiment [2] (nalidixic acid 12.5 μg/mL) and in experiment [2] (nalidixic acid 25 μg/mL) were “substantially more” and “stunted the growth”, respectively. Besides, the “viability of M. carbonacea” value in experiment [2] (nalidixic acid 50 μg/mL) is reported as “not viable”.
In the case of `CCC1OC(=O)C[C@@H](O)[C@H](C)[C@@H](OC2OC(C)CC(N(C)C)C2O)[C@@H](CC=[N+]([O-])[C@@]2(C)C[C@@H](O[C@@H]3C[C@H](O[C@@H]([C@H](O)CC(=O)O)[C@@H](C)O)O[C@H](C)[C@H]3OC(=O)c3c(C)c(Cl)c(O)c(Cl)c3OC)O[C@@H](C)[C@H]2OC)C[C@@H](C)C(=O)/C=C/[C@]2(C)O[C@H]2[C@@H]1C` (stereo partly shown), the MIC in experiment [3] (setting [5]) was 1 µg/mL (≈ 0.791 µM).
In the case of `COC[C@H]1O[C@@H](O[C@@H]2OC[C@@H]3O[C@@]4(OC[C@@H](OC(=O)c5c(C)cc(O)cc5O)[C@@H]5OCO[C@H]54)O[C@H]3[C@H]2O)[C@@H](OC)[C@@H](O)[C@@H]1O[C@@H]1O[C@H](C)[C@H](OC)[C@H](O[C@@H]2O[C@H](C)[C@H]3O[C@]4(C[C@@H](O)[C@H](O[C@H]5C[C@@H](O[C@H]6C[C@](C)([N+](=O)[O-])[C@@H](OC)[C@H](C)O6)[C@H](OC(=O)c6c(C)c(Cl)c(O)c(Cl)c6OC)[C@@H](C)O5)[C@@H](C)O4)O[C@]3(C)[C@@H]2O)[C@H]1O` [everninomicin A], in experiment [3] (setting [5]), the MIC came to 1 µg/mL (≈ 0.613 µM).
For the compound everninomicin H, the “activity against S. aureus” value in experiment [3] (S. aureus) is listed as “moderately active”. The same compound yielded an MIC in experiment [3] of 16 µg/mL.
Compound `CNC1CC(N)C(O)C(OC2OC(CO)C(O)C3OC4(OC(C(N)CO)C(O)C(O)C4O)OC23)C1O` (stereo not shown) [hygromycin B] gave a Kd in experiment [4] of 3.4 ± 0.5 µM.
